Series [1] can be described thus: therapeutic activity of the oxidized forms. The note with it: in vivo. The source says: (§1) Although NADH and/or NADPH may be used by themselves in pure form (they are quite stable in compressed form when protected from light), it is preferred that they be combined in a galenic formulation with a stabilizer, and most preferably with both a stabilizer and a filler. The use of a stabilizer is preferred to prevent oxidation of NADH and NADPH to NAD^+ and […] , respectively. Although, NADH and NADPH are active for the variety of therapeutic effects discussed above, NAD^+ and NADP^+ are ineffective. Therefore, oxidation of NADH and NADPH must be prevented during storage to provide for a reasonable shelf life. […] NADH/NADPH formulations containing such stabilizers are stable for up to two years. Other various stabilizers will become apparent tc those skilled in the art.

A short description of a further series: stability against pH. It counts as physicochemical. The source says: The NADH may be entrapped in the liposomes in either of two ways. The NADH may be dissolved in the organic solvent together with the lipid(s) and the detergent(s) during the liposome formation. By this procedure, the NADH will be present in the lipid film before the film is solubilized. Alternatively, the NADH may be entrapped by dissolving it in the aqueous solvent (preferably buffered) before the lipid film is exposed to the aqueous solvent. It is important that the aqueous solution of NADH not have a pH below 7 as NADH (and NADPH) are very unstable at pHs below 7. This second method of entrapment (i.e., dissolving NADH in aqueous solution) is preferred.

Series [2] relates to Parkinson's disease. Conditions: intravenous, patients with Parkinson's disease; cited from earlier work.
The subject of series [3] is skin proliferation layer cells. Type of series: in vivo. Conditions: topical; for penetration of cutis and entry into cells of the skin proliferation layer: radiolabelled.
The nature of series [4]: dissolution in fluids secreted by the olfactory mucous membrane. It counts as physicochemical. The note with it: fluids of the olfactory epithelium. As to the method: Thus, in accordance with the invention, the NADH may be administered to the nasal cavity of a patient afflicted with Parkinson's disease, Alzheimer's disease or mental depression. The NADH may be applied alone or in combination with other substances, for example, a pharmaceutically acceptable carrier or an agent that facilitates the transfer of the NADH through the nasal mucosa. The NADH is administered intranasally as a powder, spray, gel, ointment, infusion, injection or nose drops. The NADH is delivered to the nasal cavity. It is preferred that the NADH be delivered to the olfactory area in the upper third of the nasal cavity, and particularly to the olfactory neuroepithelium in order to promote transport of the NADH into the peripheral olfactory neurons rather than the capillaries within the respiratory epithelium. It is preferred that the transport of NADH to the brain be by means of the nervous system rather than the circulatory system so that the blood-brain barrier from the bloodstream into the brain is circumvented. However, good results can also be obtained through the bloodstream. […] The NADH may be combined with a carrier or other substance that fosters dissolution within nasal secretions, such as the ganglioside GM-1 or the phospolipid phosphatidylserine, or emulsifiers such as polysorbate 80. […]

Series [5] can be described thus: sublingual administration. Type of series: in vivo. The source says: The NADH is merely placed underneath the tongue and resorbed. Unlike the oral form of NADH described in U.S. Pat. No. 5,332,727, a sublingual form should not be coated with an acid stable protective coating.
For series [6] the following is noted: oral form; cited from earlier work.
Series [7] deals with Parkinson's disease. The note with it: earlier patents; cited from earlier work.
Another series has as its system skin cells. Nature of the series: topical application: skin cell life, water uptake, wrinkles. Type of series: in vivo. The source says: (§2) The NADH encapsulated by the liposomes is simply applied topically to the skin, and is rubbed into the skin to ensure penetration.
A further series concerns mitochondrial enzymes. Nature of the series: stimulation of enzymes essential for the energy production of skin cells. It counts as cell-based. The note with it: topical. From the text:
In accordance with the invention, an NADH and/or NADPH composition is provided for topical application to the skin. […] The enzymes stimulated are principally the mitochondrial enzymes. The NADH and/or NADPH can be incorporated into a skin compatible cream, lotion or cosmetic, or can be combined with micelles of lipophilic substances. Liposomes are preferred vesicles for delivering the greatest dosages of NADH and/or NADPH into the skin.

Another series relates to mitochondria. Nature of the series: stimulation of mitochondrial energy production of skin cells. It counts as cell-based.
From the text: as §2

The conditions of series [8]: after intravenous application; cited from earlier work.
Series [9] relates to Alzheimer's disease. The note with it: orally or intravenously; cited from earlier work.
For the next series, the system named is Parkinsonian patients. Description: motor system in Parkinsonian patients. It counts as in vivo, human. The note with it: sublingual, rectal or nasal; single 5 to 500 mg, daily 5 to 1,500 mg. As to the method: A suitable single dose of NADH and/or NADPH for sublingual, rectal or nasal application is 5 to 500 mg, preferably 25 to 100 mg. A suitable daily dose is 5 to 1,500 mg, preferably 25 to 300 mg.

Series [10] is described as follows: shelf/storage stability of pure substance and formulations. It counts as physicochemical. The note with it: protected from light.
From the text: as §1
In general, a preferred formulation will include about 3 to 10% by weight NADH and/or NADPH; about 1 to 10% by weight stabilizer; and the remainder as filler. Such a formulation, after being compressed into a pill and coated, is stable for over 24 months.

In the next series the test system is cell degeneration. Conditions: presence of uncoupled mitochondria; cited from earlier work.
Series [11] in a line: nasal absorption and transport to the brain. Type of series: in vivo. The note with it: inhaled through nasal passages. From the text: For a powder spray, the NADH is simply ground into a fine powder and atomized from a spray bottle. Preferably, pure NADH is used for the powder spray, however, it can be used in conjunction with a filler, such as mannitol, as described below.

In series [12] the test system is Parkinson's disease. Description: nasal administration in Parkinson's disease. Type of series: in vivo, human. The source says:
(§3) However, I have now discovered that NADH and/or NADPH is also effective when administered topically (as described above for prolonging the life of skin cells and reducing wrinkles), sublingually, rectally and nasally.

A short description of series [13]: rectal administration (suppositories). It counts as in vivo. As to the method: It has also been discovered that good results are obtained when NADH is administered rectally. […] NADH may be administered rectally in the form of suppositories. A suitable suppository formulations are: […]
The subject of series [14] is Alzheimer's disease. Nature of the series: nasal administration in Alzheimer's disease. Type of series: in vivo, human.
From the text: as §3

Series [15] in a line: compatibility with lactose. It counts as physicochemical. Conditions: lactose as filler. From the text: Suitable fillers for use with NADH and NADPH include: mannitol, microcrystalline cellulose, carboxymethyl cellulose; and dibasic calcium phosphate. Other suitable fillers will become apparent to those skilled in the art.

Entries after “also recorded” stand apart in the source; their conditions may differ. Structures can show the parent of a compound that is named as a salt.

`NC(=O)c1ccc[n+]([C@@H]2O[C@H](COP(=O)([O-])OP(=O)(O)OC[C@H]3O[C@@H](n4cnc5c(N)ncnc54)[C@H](OP(=O)(O)O)[C@@H]3O)[C@@H](O)[C@H]2O)c1` [NADP^+]: the “therapeutic effectiveness of oxidized forms” value in series [1] is “ineffective”.

Turning to `NC(=O)C1=CN([C@@H]2O[C@H](COP(=O)(O)OP(=O)(O)OC[C@H]3O[C@@H](n4cnc5c(N)ncnc54)[C@H](OP(=O)(O)O)[C@@H]3O)[C@@H](O)[C@H]2O)C=CC1` [NADPH, nicotinamide adenine phosphate dinucleotide in its reduced form], the “stability at pH below 7” value in the series “stability against pH” is reported as “very unstable”. In the series with Parkinson's disease [2], the beneficial effect entry is “remarkable beneficial effect” and the “duration of beneficial effect” value was “at least 24 hours”. Also, in series [3], the “absorption by the skin and uptake by the skin cells” value is “absorbed by the skin and penetrate the cutis to be taken up by the skin cells”; the “entry into cells of the proliferation layer, not encapsulated by liposomes” value is recorded as “enters the cells of the proliferation layer”; the “penetration of cutis and entry into cells of the skin proliferation layer” value is “crosses the cutis and enters the cells which comprise the skin proliferation layer”. The “dissolution in nasal secretions” value in [4] is “capable of at least partially dissolving in the fluids”. In addition, in series [5], the “effectiveness when administered sublingually” value is recorded as “effective when administered sublingually”. The “absorption by the intestine” value in [6] is “absorbed by the intestine”. Moreover, the “usefulness/effectiveness in Parkinson's disease” value with Parkinson's disease [7] is “effective in the treatment of Parkinson's disease; also recorded: useful in the treatment of Parkinson's Disease”. For the same compound, in the series with skin cells, the cell life entry is “prolonged cell life” and the “water uptake by the cell / wrinkle formation” value was “increased water uptake by the cell, thereby reducing wrinkle formation”. In addition, in the series with mitochondrial enzymes, the “stimulation of enzymes essential for energy production of skin cells” value is given as “stimulate certain enzymes which are essential for the energy production of the cells”. Also, the “distribution to mitochondria and stimulation of energy production of the cell” value in the series on mitochondria was “goes to the mitochondria where it stimulates the energy production of the cell”. For the same compound, the “degradation in plasma and blood” value in series [8] was “not rapidly degraded in the plasma and blood”. For the same compound, the “effectiveness in Alzheimer's disease” value in the series on Alzheimer's disease [9] was “effective in the treatment of Parkinson's disease and Alzheimer's disease”. In addition, in the series with Parkinsonian patients, the “effect on motor system” value was “improve the motor system in Parkinsonian patients”. Further, the “stability in pure compressed form” value in series [10] was “quite stable”.

On to `C[C@@H](O)CC(=O)O` [D(-)-β-hydroxybutyrate sodium salt], for which, in the series on cell degeneration, the “inhibition of cell degeneration” value was “inhibited cell degeneration resulting from the presence of uncoupled mitochondria in a dose dependent manner”.

Take `NC(=O)C1=CN([C@@H]2O[C@H](COP(=O)(O)OP(=O)(O)OC[C@H]3O[C@@H](n4cnc5c(N)ncnc54)[C@H](O)[C@@H]3O)[C@@H](O)[C@H]2O)C=CC1` [NADH, nicotinamide adenine dinucleotide in its reduced form]: in the series “stability against pH”, the “stability at pH below 7” value is “very unstable”. Moreover, in the series with Parkinson's disease [2], the beneficial effect entry was “remarkable beneficial effect” and the “duration of beneficial effect” value was “at least 24 hours”. Moreover, in series [3], the “absorption by the skin and uptake by the skin cells” value is “absorbed by the skin and penetrate the cutis to be taken up by the skin cells”; the “entry into cells of the proliferation layer, not encapsulated by liposomes” value is given as “enters the cells of the proliferation layer”; the “penetration of cutis and entry into cells of the skin proliferation layer” value was “crosses the cutis and enters the cells which comprise the skin proliferation layer”. Besides, the “dissolution in nasal secretions” value in series [4] was “capable of at least partially dissolving in the fluids”. In [5], the “effectiveness when administered sublingually” value is “effective when administered sublingually” and the “speed of results, sublingual” value is “very fast results”. Also, the “nasal absorption and transport to the brain” value in series [11] is “travels directly to the brain, circumventing the blood-brain barrier; also recorded: absorbed by the mucosa of the nose and travels to the brain through the olfactory neural pathway”. Besides, the “effectiveness by nasal application in Parkinson's disease” value in the series with Parkinson's disease [12] (nasal) is “particularly effective in the treatment of Alzheimer's disease and Parkinson's disease”. The “therapeutic effects, nasal vs oral form” value in the series with Parkinson's disease [12] (nasal powder spray) is recorded as “same therapeutic effects as the oral form”. Also, in series [13], the “results when administered rectally” value is recorded as “good results”. The “speed of results, rectal” value in series [13] (compared with nasal or sublingual) was “not obtained as quickly as in the case of nasal or sublingual administration”. For the same compound, the “absorption by the intestine” value in [6] was “absorbed by the intestine”. In the series on Alzheimer's disease [14], the “effectiveness by nasal application in Alzheimer's disease” value is given as “particularly effective in the treatment of Alzheimer's disease” and the “speed of results, nasal” value was “very fast results”. In addition, the “usefulness/effectiveness in Parkinson's disease” value in the series on Parkinson's disease [7] is listed as “effective in the treatment of Parkinson's disease; also recorded: useful in the treatment of Parkinson's Disease”. In addition, in the series on skin cells, the cell life entry is listed as “prolonged cell life” and the “water uptake by the cell / wrinkle formation” value is “increased water uptake by the cell, thereby reducing wrinkle formation”. Moreover, the “stimulation of enzymes essential for energy production of skin cells” value with mitochondrial enzymes is “stimulate certain enzymes which are essential for the energy production of the cells”. The “distribution to mitochondria and stimulation of energy production of the cell” value in the series on mitochondria was “goes to the mitochondria where it stimulates the energy production of the cell”. In [8], the “degradation in plasma and blood” value was “not rapidly degraded in the plasma and blood”. The “effectiveness in Alzheimer's disease” value in the series with Alzheimer's disease [9] was “effective in the treatment of Parkinson's disease and Alzheimer's disease”. Also, in series [15], the reaction with lactose entry is given as “reacts with NADH”. Further, the “effect on motor system” value in the series with Parkinsonian patients is “improve the motor system in Parkinsonian patients”. Moreover, in series [10], the “stability in pure compressed form” value is “quite stable”.

Turning to `NC(=O)c1ccc[n+]([C@@H]2O[C@H](COP(=O)([O-])OP(=O)(O)OC[C@H]3O[C@@H](n4cnc5c(N)ncnc54)[C@H](O)[C@@H]3O)[C@@H](O)[C@H]2O)c1` [NAD^+], the “therapeutic effectiveness of oxidized forms” value in series [1] was “ineffective”.

The values are drawn from US5952312A, “NADH and NADPH therapeutic agents for nasal, sublingual, rectal and dermal administration” (Birkmayer Pharmaceuticals, Inc., priority 1998, dated 1999).
